Experimental data from patent US11013812B2, “Ice-based lipid nanoparticle formulation for delivery of mRNA” (Translate Bio, Inc., priority 2016, dated 2021).

Experiment: Percent mRNA encapsulation of lipid nanoparticle formulations (fluorescence-based detection of mRNA)
Assay type: physicochemical
Details: LNP of cationic lipid:DOPE:DMG-PEG 2K (molar ratio 60:35:5); 5 mg mRNA LNP preparations
From the text: In some embodiments, one particular application of the novel lipid composition comprising a sterol-based cationic lipid, a helper lipid, and a PEG or PEG-modified lipid is pulmonary delivery of mRNA, such as CFTR mRNA.
In this process, the lipids dissolved in ethanol and the mRNA dissolved in citrate buffer were mixed using a pump system. […] The resultant formulation mixture was in citrate buffer containing 20% ethanol. The formulation was subjected to a buffer exchange and the resultant formulation was adjusted to the desired mRNA concentration and stored frozen until further use. Final concentration: 0.5 mg/mL CFTR mRNA (encapsulated). % mRNA Encapsulation: 90%. Size: 60 nm. PDI: 0.14.

% mRNA encapsulation [%] | SMILES
59 | CCCCCCCCCCC(O)CN(CCCC(C)C1OC(=O)C(C(C)CCCN(CC(O)CCCCCCCCCC)CC(O)CCCCCCCCCC)OC1=O)CC(O)CCCCCCCCC (centres unmarked) [Target 24, 3-(5-(bis(2-hydroxydodecyl)amino)pentan-2-yl)-6-(5-((2-hydroxydodecyl)(2-hydroxyundecyl)amino)pentan-2-yl)-1,4-dioxane-2,5-dione]
51 | CCCCCCCC/C=C\CCCCCCCCOCC(CN(C)C)OCCCCCCCC/C=C\CCCCCCCC (centres unmarked) [DODMA, 1,2-Dioleyloxy-3-dimethylaminopropane]
39 | CCCCCCCCCCC(O)CN(CCN1CCN(CCN(CC(O)CCCCCCCCCC)CC(O)CCCCCCCCCC)CC1)CCN(CC(O)CCCCCCCCCC)CC(O)CCCCCCCCCC (centres unmarked) [C12-200]
49 | CCCCCCCC/C=C\CCCCCCCC(=O)OCC(CN(C)C)OC(=O)CCCCCCC/C=C\CCCCCCCC (centres unmarked) [DODAP, 1,2-dioleoyl-3-dimethylammonium-propane]

SMILES | % mRNA encapsulation [%]
CC(C)CCCC(C)C1CCC2C3CC=C4CC(OC(=O)CCc5cnc[nH]5)CCC4(C)C3CCC12C [ICE, (3S, 10R, 13R, 17R)-10, 13-dimethyl-17-((R)-6-methylheptan-2-yl)-2,3,4,7,8,9, 10, 11, 12, 13, 14, 15, 16, 17-tetradecahydro-1H-cyclopenta[a]phenanthren-3-yl 3-(1H-imidazol-4-yl)propanoate] | 90
